# Literature values in PubChem BioAssay AID1259409 (Chemical Carcinogenesis Research Information System (CCRIS), 2018).
# Tested on: rodent chemically induced tumor inhibition, incidence and multiplicity
# Assay: CCRIS tumor inhibitor studies
# Settings: Dose [Inhibitor]: 0, Route [Inhibitor]: ORAL
compound,measurement,setting,value
COc1ccc2c(c1)c(CC(=O)O)c(C)n2C(=O)c1ccc(Cl)cc1,"tumour outcome (control, treated, inhibition, significance)","Carcinogen: N-BUTYL-N-(4-HYDROXYBUTYL)NITROSAMINE, 3817-11-6, 20 PPM IN DRINKING WATER FOR 40 WK BEGINNING POST CARCINOGEN TREATMENT (STUDY DURATION: 44 WK), Species: RAT, Strain/Sex: F344/MALE, Target Tissue: Type of Lesion: URINARY BLADDER: PAPILLOMA, Dose [Carcinogen]: 0.05% IN DRINKING WATER FOR 4 WK, Promoter: BUTYLATED HYDROXYANISOLE, 25013-16-5","14/15 (93%), 4/15 (27%), 71%, p<0.01"
same,"tumour outcome (control, treated, inhibition, significance)","Carcinogen: N-BUTYL-N-(4-HYDROXYBUTYL)NITROSAMINE, 3817-11-6, 20 PPM IN DRINKING WATER FOR 40 WK BEGINNING POST CARCINOGEN TREATMENT (STUDY DURATION: 44 WK), Species: RAT, Strain/Sex: F344/MALE, Target Tissue: Type of Lesion: URINARY BLADDER: PAPILLOMA, Dose [Carcinogen]: 0.05% IN DRINKING WATER FOR 4 WK, Promoter: SODIUM L-ASCORBATE, 134-03-2","15/15 (100%), 9/15 (60%), 40%, p<0.01"
same,"tumour outcome (control, treated, inhibition, significance)","Carcinogen: N-BUTYL-N-(4-HYDROXYBUTYL)NITROSAMINE, 3817-11-6, 20 PPM IN DRINKING WATER FOR 40 WK BEGINNING POST CARCINOGEN TREATMENT (STUDY DURATION: 44 WK), Species: RAT, Strain/Sex: F344/MALE, Target Tissue: Type of Lesion: URINARY BLADDER: TRANSITIONAL CELL CARCINOMA, Dose [Carcinogen]: 0.05% IN DRINKING WATER FOR 4 WK, Promoter: BUTYLATED HYDROXYANISOLE, 25013-16-5","10/15 (67%), 1/15 (7%), 90%, p<0.01"
same,"tumour outcome (control, treated, inhibition, significance)","Carcinogen: N-BUTYL-N-(4-HYDROXYBUTYL)NITROSAMINE, 3817-11-6, 20 PPM IN DRINKING WATER FOR 40 WK BEGINNING POST CARCINOGEN TREATMENT (STUDY DURATION: 44 WK), Species: RAT, Strain/Sex: F344/MALE, Target Tissue: Type of Lesion: URINARY BLADDER: TRANSITIONAL CELL CARCINOMA, Dose [Carcinogen]: 0.05% IN DRINKING WATER FOR 4 WK, Promoter: SODIUM L-ASCORBATE, 134-03-2","15/15 (100%), 5/15 (33%), 67%, p<0.01"
same,"tumour outcome (control, treated, inhibition, significance)","Carcinogen: N-BUTYL-N-(4-HYDROXYBUTYL)NITROSAMINE, 53609-64-6, 7.5 MG/KG OF DIET STARTING 1 WK PRIOR TO CARCINOGEN DOSE FROM 49 D OF AGE AND CONTINUING FOR DURATION OF STUDY (STUDY, Species: MOUSE, Strain/Sex: BDF/MALE, Target Tissue: Type of Lesion: BLADDER: CARCINOMA, Dose [Carcinogen]: 7.5 MG IN 0.1 ML OF ETHANOL:WATER (20:80) 1/WK FOR 8 WK, Promoter: NONE USED","14%, 4%, 71%, p<0.05"
same,"tumour outcome (control, treated, inhibition, significance)","Carcinogen: N-BUTYL-N-(4-HYDROXYBUTYL)NITROSAMINE, 53609-64-6, 7.5 MG/KG OF DIET STARTING 1 WK PRIOR TO CARCINOGEN DOSE FROM 49 D OF AGE AND CONTINUING FOR DURATION OF STUDY (STUDY, Species: MOUSE, Strain/Sex: BDF/MALE, Target Tissue: Type of Lesion: BLADDER: PAPILLOMA, Dose [Carcinogen]: 7.5 MG IN 0.1 ML OF ETHANOL:WATER (20:80) 1/WK FOR 8 WK, Promoter: NONE USED","13%, 1%, 92%, p<0.01"
same,"tumour outcome (control, treated, inhibition, significance)","Carcinogen: N-BUTYL-N-(4-HYDROXYBUTYL)NITROSAMINE, 53609-64-6, 15 MG/KG OF DIET STARTING 1 WK PRIOR TO CARCINOGEN DOSE AT 49 D OF AGE AND CONTINUING FOR DURATION OF STUDY (STUDY DU, Species: MOUSE, Strain/Sex: BDF/MALE, Target Tissue: Type of Lesion: BLADDER: CARCINOMA, Dose [Carcinogen]: 7.5 MG IN 0.1 ML OF ETHANOL:WATER (20:80) 1/WK FOR 8 WK, Promoter: NONE USED","14%, 0%, 100%, p<0.01"
same,"tumour outcome (control, treated, inhibition, significance)","Carcinogen: N-BUTYL-N-(4-HYDROXYBUTYL)NITROSAMINE, 53609-64-6, 15 MG/KG OF DIET STARTING 1 WK PRIOR TO CARCINOGEN DOSE AT 49 D OF AGE AND CONTINUING FOR DURATION OF STUDY (STUDY DU, Species: MOUSE, Strain/Sex: BDF/MALE, Target Tissue: Type of Lesion: BLADDER: PAPILLOMA, Dose [Carcinogen]: 7.5 MG IN 0.1 ML OF ETHANOL:WATER (20:80) 1/WK FOR 8 WK, Promoter: NONE USED","13%, 0%, 100%, p<0.01"
same,"tumour outcome (control, treated, inhibition, significance)","Carcinogen: N-ETHYL-N-NITROSOUREA, 759-73-9, 20 MG/L IN DRINKING WATER FOR 12 MO ADMINISTERED TO OFFSPRING OF CARCINOGEN-TREATED MOTHERS (STUDY DURATION: 12 MO), Species: RAT, Strain/Sex: ALBINO/MALE, FEMALE, Target Tissue: Type of Lesion: BRAIN: TUMOR, Dose [Carcinogen]: 75 MG/KG BW ADMINISTERED INTRAPERITONEALLY TO MOTHERS 21 D POST CONCEPTION, Promoter: NONE USED","36/42 (86%), 14/25 (56%), 35%, p<0.05"
same,"tumour outcome (control, treated, inhibition, significance)","Carcinogen: N-ETHYL-N-NITROSOUREA, 759-73-9, 20 MG/L IN DRINKING WATER FOR 12 MO ADMINISTERED TO OFFSPRING OF CARCINOGEN-TREATED MOTHERS (STUDY DURATION: 12 MO), Species: RAT, Strain/Sex: ALBINO/MALE, FEMALE, Target Tissue: Type of Lesion: KIDNEY: TUMOR, Dose [Carcinogen]: 75 MG/KG BW ADMINISTERED INTRAPERITONEALLY TO MOTHERS 21 D POST CONCEPTION, Promoter: NONE USED","19/42 (45%), 8/25 (32%), 29%, not significant"
